Assay results as given in ChEMBL document CHEMBL5625165, “Nine-valent oleanolic acid conjugates as potent inhibitors blocking the entry of influenza A virus” (Eur J Med Chem, 2023).
The source made the active and inactive calls. The calls are words filed in the database; no cut-off is given here.

Columns and labels:
Erythrocyte [1] = test: Inhibition of hemagglutination in chicken RBC cells infected with Influenza A virus A/WSN/33 (H1N1) assessed as reduction in virus-induced agglutination of erythrocytes at 0.24 to 15 uM incubated for 24 mins; assay type: functional, cell-based; settings: Gallus gallus, dose 0.24-15 µM
[2] = Cytotoxicity against dog MDCK cells assessed as reduction in cell viability incubated for 48 hrs by celltiter-glo assay; assay type: toxicity, cell-based, Canis lupus familiaris
Influenza A virus [3] = test: Antiviral activity against influenza A virus A/WSN/33(H1N1) infected in MDCK cells assessed as inhibition of viral-induced cytopathic effect incubated for 48 hrs by microscopic analysis; assay type: functional, organism-based
Influenza A virus [4] = test: Antiviral activity against influenza A virus A/WSN/33(H1N1) infected in MDCK cells assessed as inhibition of viral growth at 30 uM incubated for 48 hrs by microscopic analysis; assay type: functional; parameters: scale not given: the % may be the effect or the level left
[5] = Selectivity index, ratio of CC50 for cytotoxicity against dog MDCK cells assessed as reduction in cell viability to IC50 for antiviral activity against influenza A virus B/Darwin/58/2019 (Yamagata) infected in MDCK cells assessed as inhibition of viral growth; assay type: toxicity, cell-based; settings: read-out: Ratio CC50/IC50
Erythrocyte [6] = test: Hemolytic activity in rabbit RBC assessed as hemolysis at 300 uM incubated for 2 hr by spectrophotometry analysis; assay type: toxicity, cell-based, Oryctolagus cuniculus
Influenza A virus [7] = test: Antiviral activity against influenza A virus B/Darwin/58/2019 (Yamagata) infected in MDCK cells assessed as inhibition of viral growth; assay type: functional, organism-based
Influenza A virus [8] = test: Antiviral activity against influenza A virus B/Sichuan/531/2018 (Victoria) infected in MDCK cells assessed as inhibition of viral growth; assay type: functional, organism-based
Influenza A virus [9] = test: Antiviral activity against influenza A virus A/WSN/33(H1N1) infected in MDCK cells assessed as reduction in M2 expression measured upto 2 hrs by time of addition assay; assay type: functional; parameters: scale not given: the % may be the effect or the level left
[10] = Selectivity index, ratio of CC50 for cytotoxicity against dog MDCK cells assessed as reduction in cell viability to IC50 for antiviral activity against influenza A virus A/WSN/33(H1N1) infected in MDCK cells assessed as inhibition of viral-induced cytopathic effect; assay type: toxicity, cell-based; settings: read-out: Ratio CC50/IC50
[11] = Selectivity index, ratio of CC50 for cytotoxicity against dog MDCK cells assessed as reduction in cell viability to IC50 for antiviral activity against influenza A virus B/Sichuan/531/2018 (Victoria) infected in MDCK cells assessed as inhibition of viral growth; assay type: toxicity, cell-based; settings: read-out: Ratio CC50/IC50
[12] = Cytotoxicity against dog MDCK cells assessed as cell viability at 30 uM incubated for 48 hrs by celltiter-glo assay; assay type: toxicity, cell-based, Canis lupus familiaris; settings: read-out: Activity
[13] = Binding affinity to influenza A virus H1N1 (A/michigan/45/2015) assessed as dissociation constant by SPR analysis
Influenza A virus [14] = test: Antiviral activity against influenza A virus A/WSN/33(H1N1) infected in MDCK cells assessed as inhibition of virus-induced cytopathic effect at 30 uM incubated for 48 hrs by microscopic analysis; assay type: functional, organism-based

Structure (SMILES) | inhibition (Erythrocyte [1]) | CC50 at 48 h [2] | IC50 (Influenza A virus [3]) | Activity (Influenza A virus [4]) | selectivity ratio [5] | Activity (Erythrocyte [6]) | IC50 (Influenza A virus [7]) | IC50 (Influenza A virus [8]) | Activity (Influenza A virus [9]) | selectivity ratio [10] | selectivity ratio [11] | viability at 48 h, 30 µM [12] | Kd [13] | Activity (Influenza A virus [14])
CC1(C)CC[C@]2(C(=O)NCCOCCn3cc(COc4cc(C(=O)NCCNC(=O)OCCn5cc(COc6cc(OCc7cn(CCOC(=O)NCCNC(=O)c8cc(OCc9cn(CCOCCNC(=O)[C@]%10%11CCC(C)(C)C[C@H]%10C%10=CC[C@@H]%12[C@@]%13(C)CC[C@H](O)C(C)(C)[C@@H]%13CC[C@@]%12(C)[C@]%10(C)CC%11)nn9)c(OCc9cn(CCOCCNC(=O)[C@]%10%11CCC(C)(C)C[C@H]%10C%10=CC[C@@H]%12[C@@]%13(C)CC[C@H](O)C(C)(C)[C@@H]%13CC[C@@]%12(C)[C@]%10(C)CC%11)nn9)c(OCc9cn(CCOCCNC(=O)[C@]%10%11CCC(C)(C)C[C@H]%10C%10=CC[C@@H]%12[C@@]%13(C)CC[C@H](O)C(C)(C)[C@@H]%13CC[C@@]%12(C)[C@]%10(C)CC%11)nn9)c8)nn7)cc(OCc7cn(CCOC(=O)NCCNC(=O)c8cc(OCc9cn(CCOCCNC(=O)[C@]%10%11CCC(C)(C)C[C@H]%10C%10=CC[C@@H]%12[C@@]%13(C)CC[C@H](O)C(C)(C)[C@@H]%13CC[C@@]%12(C)[C@]%10(C)CC%11)nn9)c(OCc9cn(CCOCCNC(=O)[C@]%10%11CCC(C)(C)C[C@H]%10C%10=CC[C@@H]%12[C@@]%13(C)CC[C@H](O)C(C)(C)[C@@H]%13CC[C@@]%12(C)[C@]%10(C)CC%11)nn9)c(OCc9cn(CCOCCNC(=O)[C@]%10%11CCC(C)(C)C[C@H]%10C%10=CC[C@@H]%12[C@@]%13(C)CC[C@H](O)C(C)(C)[C@@H]%13CC[C@@]%12(C)[C@]%10(C)CC%11)nn9)c8)nn7)c6)nn5)cc(OCc5cn(CCOCCNC(=O)[C@]67CCC(C)(C)C[C@H]6C6=CC[C@@H]8[C@@]9(C)CC[C@H](O)C(C)(C)[C@@H]9CC[C@@]8(C)[C@]6(C)CC7)nn5)c4OCc4cn(CCOCCNC(=O)[C@]56CCC(C)(C)C[C@H]5C5=CC[C@@H]7[C@@]8(C)CC[C@H](O)C(C)(C)[C@@H]8CC[C@@]7(C)[C@]5(C)CC6)nn4)nn3)CC[C@]3(C)C(=CC[C@@H]4[C@@]5(C)CC[C@H](O)C(C)(C)[C@@H]5CC[C@]43C)[C@@H]2C1 | Active | > 30 µM | 7.93 µM | 100% | > 3.2 | Non-Toxic | 9.38 µM | 27.2 µM | >90% | > 3.78 | > 1.1 | 96.5% |  | 
CC1(C)CC[C@]2(C(=O)NCCOCCOCCOCCn3cc(COc4cc(C(=O)NCCOCCOCCOCCn5cc(COc6cc(OCc7cn(CCOCCOCCOCCNC(=O)c8cc(OCc9cn(CCOCCOCCOCCNC(=O)[C@]%10%11CCC(C)(C)C[C@H]%10C%10=CC[C@@H]%12[C@@]%13(C)CC[C@H](O)C(C)(C)[C@@H]%13CC[C@@]%12(C)[C@]%10(C)CC%11)nn9)c(OCc9cn(CCOCCOCCOCCNC(=O)[C@]%10%11CCC(C)(C)C[C@H]%10C%10=CC[C@@H]%12[C@@]%13(C)CC[C@H](O)C(C)(C)[C@@H]%13CC[C@@]%12(C)[C@]%10(C)CC%11)nn9)c(OCc9cn(CCOCCOCCOCCNC(=O)[C@]%10%11CCC(C)(C)C[C@H]%10C%10=CC[C@@H]%12[C@@]%13(C)CC[C@H](O)C(C)(C)[C@@H]%13CC[C@@]%12(C)[C@]%10(C)CC%11)nn9)c8)nn7)cc(OCc7cn(CCOCCOCCOCCNC(=O)c8cc(OCc9cn(CCOCCOCCOCCNC(=O)[C@]%10%11CCC(C)(C)C[C@H]%10C%10=CC[C@@H]%12[C@@]%13(C)CC[C@H](O)C(C)(C)[C@@H]%13CC[C@@]%12(C)[C@]%10(C)CC%11)nn9)c(OCc9cn(CCOCCOCCOCCNC(=O)[C@]%10%11CCC(C)(C)C[C@H]%10C%10=CC[C@@H]%12[C@@]%13(C)CC[C@H](O)C(C)(C)[C@@H]%13CC[C@@]%12(C)[C@]%10(C)CC%11)nn9)c(OCc9cn(CCOCCOCCOCCNC(=O)[C@]%10%11CCC(C)(C)C[C@H]%10C%10=CC[C@@H]%12[C@@]%13(C)CC[C@H](O)C(C)(C)[C@@H]%13CC[C@@]%12(C)[C@]%10(C)CC%11)nn9)c8)nn7)c6)nn5)cc(OCc5cn(CCOCCOCCOCCNC(=O)[C@]67CCC(C)(C)C[C@H]6C6=CC[C@@H]8[C@@]9(C)CC[C@H](O)C(C)(C)[C@@H]9CC[C@@]8(C)[C@]6(C)CC7)nn5)c4OCc4cn(CCOCCOCCOCCNC(=O)[C@]56CCC(C)(C)C[C@H]5C5=CC[C@@H]7[C@@]8(C)CC[C@H](O)C(C)(C)[C@@H]8CC[C@@]7(C)[C@]5(C)CC6)nn4)nn3)CC[C@]3(C)C(=CC[C@@H]4[C@@]5(C)CC[C@H](O)C(C)(C)[C@@H]5CC[C@]43C)[C@@H]2C1 | Active | > 30 µM | 5.23 µM | 76.88% |  |  |  | 33.5 µM | >90% | > 5.74 | > 0.9 | 100% | 12.9 µM | Active
